{"source": "patent US11084800B2", "about": "(Achillion Pharmaceuticals, Inc., priority 2017, dated 2021)", "data": [{"target": "Human Factor D (Homo sapiens (Human), UniProt P00746)", "sequence (P00746 26-253)": "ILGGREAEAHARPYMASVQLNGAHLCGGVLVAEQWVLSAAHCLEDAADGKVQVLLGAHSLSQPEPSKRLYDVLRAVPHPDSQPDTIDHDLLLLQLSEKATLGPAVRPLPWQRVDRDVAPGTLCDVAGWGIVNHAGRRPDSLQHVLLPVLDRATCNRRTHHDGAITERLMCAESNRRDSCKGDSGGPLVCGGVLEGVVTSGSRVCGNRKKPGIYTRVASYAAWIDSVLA", "experiment": "Human Factor D Assay", "type": "biochemical", "settings": "Factor D inhibition, assay of Example 10; read-out: IC5 (Stars)", "procedure,_shortened": "(§1)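 Thioester substrate Z-L-Lys-SBz (100 μM) with Ellman's reagent DTNB (100 μM) reports activity of 80 nM human serum-derived enzyme, kinetically at 405 nm over 30 min. Compound preincubated 5 min, room temperature, pH 7.5 Tris/1 M NaCl; IC50 by nonlinear fit of rates.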", "units": {"IC50": "nM"}, "values": [{"compound": "CC(=O)c1nn(CC(=O)N2[C@H](C(=O)Nc3nc(Br)ccc3C)C[C@@]3(C)C[C@@H]23)c2ccc(-c3cnc(C)nc3C)cc12", "note": "[Compound 331, (1R,3S,5R)-2-(2-(3-acetyl-5-(2,4-dimethylpyrimidin-5-yl)-1H-indazol-1-yl)acetyl)-N-(6-bromo-3-methylpyridin-2-yl)-5-methyl-2-azabicyclo[3.1.0]hexane-3-carboxamide]", "IC50": "< 1000"}, {"compound": "CC(=O)c1nn(CC(=O)N2[C@H](C(=O)Nc3nc(Br)ccc3C)C[C@@]3(c4cc(C(C)C)no4)C[C@@H]23)c2ccc(-c3cnc(C)nc3)cc12", "note": "[Compound 333, (1R,3S,5S)-2-(2-(3-acetyl-5-(2-methylpyrimidin-5-yl)-1H-indazol-1-yl)acetyl)-N-(6-bromo-3-methylpyridin-2-yl)-5-(3-isopropylisoxazol-5-yl)-2-azabicyclo[3.1.0]hexane-3-carboxamide]", "IC50": "< 1000"}, {"compound": "CC(=O)c1nn(CC(=O)N2[C@H](C(=O)Nc3nc(Br)ccc3C)C[C@@]3(Cc4nc(C(C)(C)C)cs4)C[C@@H]23)c2ccc(-c3cnc(C)nc3)cc12", "note": "[Compound 338, (1R,3S,5R)-2-{2-[3-Acetyl-5-(2-methylpyrimidin-5-yl)indazol-1-yl]acetyl}-N-(6-bromo-3-methylpyridin-2-yl)-5-[(4-tert-butyl-1,3-thiazol-2-yl)methyl]-2-azabicyclo[3.1.0]hexane-3-carboxamide]", "IC50": "< 1000"}, {"compound": "CCc1csc(C[C@@]23C[C@@H](C(=O)Nc4nc(Br)ccc4C)N(C(=O)Cn4nc(C(C)=O)c5cc(-c6cnc(C)nc6)ccc54)[C@@H]2C3)n1", "note": "[Compound 339, (1R,3S,5R)-2-(2-(3-acetyl-5-(2-methylpyrimidin-5-yl)-1H-indazol-1-yl)acetyl)-N-(6-bromo-3-methylpyridin-2-yl)-5-((4-ethylthiazol-2-yl)methyl)-2-azabicyclo[3.1.0]hexane-3-carboxamide]", "IC50": "< 1000"}, {"compound": "CC(=O)c1nn(CC(=O)N2[C@H](C(=O)Nc3nc(Br)ccc3C)C[C@@]3(CNCCCF)C[C@@H]23)c2c(C)cc(-c3cnc(C)nc3)cc12", "note": "[Compound 342, (1R,3S,5R)-2-(2-(3-acetyl-7-methyl-5-(2-methylpyrimidin-5-yl)-1H-indazol-1-yl)acetyl)-N-(6-bromo-3-methylpyridin-2-yl)-5-(((3-fluoropropyl)amino)methyl)-2-azabicyclo[3.1.0]hexane-3-carboxamide]", "IC50": "< 1000"}, {"compound": "CC(=O)c1nn(CC(=O)N2[C@H](C(=O)Nc3nc(Br)ccc3C)C[C@@]3(CN4CC5(CCC5)C4)C[C@@H]23)c2c(C)nc(-c3cnc(C)nc3)cc12", "note": "[Compound 344, (1R,3S,5R)-5-(2-azaspiro[3.3]heptan-2-ylmethyl)-2-(2-(3-acetyl-7-methyl-5-(2-methylpyrimidin-5-yl)-1H-pyrazolo[3,4-c]pyridin-1-yl)acetyl)-N-(6-bromo-3-methylpyridin-2-yl)-2-azabicyclo[3.1.0]hexane-3-carboxamide]", "IC50": "< 1000"}, {"compound": "CC(=O)c1nn(CC(=O)N2[C@H](C(=O)Nc3nc(Br)ccc3C)C[C@@]3(CCCN(C)C)C[C@@H]23)c2c(CF)cc(-c3cnc(C)nc3)cc12", "note": "[Compound 345, (1R,3S,5R)-2-(2-(3-acetyl-7-(fluoromethyl)-5-(2-methylpyrimidin-5-yl)-1H-indazol-1-yl)acetyl)-N-(6-bromo-3-methylpyridin-2-yl)-5-(3-(dimethylamino)propyl)-2-azabicyclo[3.1.0]hexane-3-carboxamide]", "IC50": "< 1000"}, {"compound": "CC(=O)c1nn(CC(=O)N2[C@H](C(=O)Nc3nc(Br)ccc3C)C[C@@]3(Cc4ncc(C(C)C)s4)C[C@@H]23)c2ccc(-c3cnc(C)nc3)cc12", "note": "[Compound 349, (1R,3S,5R)-2-(2-(3-acetyl-5-(2-methylpyrimidin-5-yl)-1H-indazol-1-yl)acetyl)-N-(6-bromo-3-methylpyridin-2-yl)-5-((5-isopropylthiazol-2-yl)methyl)-2-azabicyclo[3.1.0]hexane-3-carboxamide]", "IC50": "< 1000"}, {"compound": "CC(=O)c1nn(CC(=O)N2[C@H](C(=O)Nc3nc(Br)ccc3C)C[C@@]3(CN4CC(C)(C)C4)C[C@@H]23)c2c(C)cc(-c3cnc(C)nc3)cc12", "note": "[Compound 350]", "IC50": "< 1000"}, {"compound": "CC(=O)c1nn(CC(=O)N2[C@H](C(=O)Nc3nc(Br)ccc3C)C[C@@]3(CN4CCCC4)C[C@@H]23)c2c(CF)cc(-c3cnc(C)nc3)cc12", "note": "[Compound 351, (1R,3S,5R)-2-(2-(3-acetyl-7-(fluoromethyl)-5-(2-methylpyrimidin-5-yl)-1H-indazol-1-yl)acetyl)-N-(6-bromo-3-methylpyridin-2-yl)-5-(pyrrolidin-1-ylmethyl)-2-azabicyclo[3.1.0]hexane-3-carboxamide]", "IC50": "< 1000"}, {"compound": "CC(=O)c1nn(CC(=O)N2[C@H](C(=O)Nc3nc(Br)ccc3C)C[C@@]3(CN4CCC4)C[C@@H]23)c2c(CF)cc(-c3cnc(C)nc3)cc12", "note": "[Compound 353, (1R,3S,5R)-2-(2-(3-acetyl-7-(fluoromethyl)-5-(2-methylpyrimidin-5-yl)-1H-indazol-1-yl)acetyl)-5-(azetidin-1-ylmethyl)-N-(6-bromo-3-methylpyridin-2-yl)-2-azabicyclo[3.1.0]hexane-3-carboxamide]", "IC50": "< 1000"}, {"compound": "CC(=O)c1nn(CC(=O)N2[C@H](C(=O)Nc3nc(Br)ccc3C)C[C@@]3(CN4CC5(CCC5)C4)C[C@@H]23)c2c(CF)cc(-c3cnc(C)nc3)cc12", "note": "[Compound 354, (1R,3S,5R)-5-(2-azaspiro[3.3]heptan-2-ylmethyl)-2-(2-(3-acetyl-7-(fluoromethyl)-5-(2-methylpyrimidin-5-yl)-1H-indazol-1-yl)acetyl)-N-(6-bromo-3-methylpyridin-2-yl)-2-azabicyclo[3.1.0]hexane-3-carboxamide]", "IC50": "< 1000"}, {"compound": "CC(=O)c1nn(CC(=O)N2[C@H](C(=O)Nc3nc(Br)ccc3C)C[C@@]3(CN4CC(C)(C)C4)C[C@@H]23)c2c(CF)cc(-c3cnc(C)nc3)cc12", "note": "[Compound 355, (1R,3S,5R)-2-(2-(3-acetyl-7-(fluoromethyl)-5-(2-methylpyrimidin-5-yl)-1H-indazol-1 yl)acetyl)-N-(6-bromo-3-methylpyridin-2-yl)-5-((3,3-dimethylazetidin-1-yl)methyl)-2-azabicyclo[3.1.0]hexane-3-carboxamide]", "IC50": "< 1000"}, {"compound": "CC(=O)c1nn(CC(=O)N2[C@H](C(=O)Nc3nc(Br)ccc3CN3CCn4c(nnc4C(F)(F)F)C3)C[C@@]3(C)C[C@@H]23)c2ccc(-c3cnc(C)nc3)cc12", "note": "[Compound 357, (1R,3S,5R)-2-(2-(3-acetyl-5-(2-methylpyrimidin-5-yl)-1H-indazol-1-yl)acetyl)-N-(6-bromo-3-((3-(trifluoromethyl)-5,6-dihydro-[1,2,4]triazolo[4,3-a]pyrazin-7(8H)-yl)methyl)pyridin-2-yl)-5-methyl-2-azabicyclo[3.1.0]hexane-3-carboxamide]", "IC50": "< 1000"}]}, {"target": "Human Factor D (Homo sapiens (Human), UniProt P00746)", "experiment": "Human Factor D Assay", "type": "biochemical", "settings": "Table 8; Factor D 80 nM, substrate Z-L-Lys-SBz; read-out: IC50", "procedure,_shortened": "as §1", "units": {"IC50": "nM"}, "values": [{"compound": "COC(=O)CCCCCCCCCCCCCCCCC(=O)N[C@@H](CCC(=O)NCCOCCOCC(=O)NCCOCCOCC(=O)NCc1ncc(-c2ccc3c(c2)c(C(C)=O)nn3CC(=O)N2[C@H](C(=O)Nc3nc(Br)ccc3C)C[C@@]3(C)C[C@@H]23)cn1)C(=O)OC", "note": "[Compound 329]", "IC50": "< 1000"}, {"compound": "C=CCCCCCCc1cc(-c2cnc(C)nc2)cc2c(C(C)=O)nn(CC(=O)N3[C@H](C(=O)Nc4nc(Br)ccc4CC=C)C[C@@]4(C)C[C@@H]34)c12", "note": "[Compound 343, (1R,3S,5R)-2-(2-(3-acetyl-5-(2-methylpyrimidin-5-yl)-7-(oct-7-en-l-yl)-1H-indazol-1-yl)acetyl)-N-(3-allyl-6-bromopyridin-2-yl)-5-methyl-2-azabicyclo[3.1.0]hexane-3-carboxamide]", "IC50": "< 1000"}]}]}
